US20040063662A1, “Selenophene anti-tumor agents” (priority 1996, published 2004)

Legend:
NCI-H322M = test: cells; assay type: cell-based; details: Homo sapiens, Non-Small Cell Lung Cancer; for GI50: read-out: Log10 GI50 (converted); for IC (TGI): read-out: Log10 TGI (converted)
IGROV1 = test: NCI human tumor cell panel: IGROV1 (Ovarian Cancer); assay type: cell-based; details: IGROV-1, IGROV1, Ovarian Cancer; for GI50: read-out: Log10 GI50 (converted); for IC (TGI): read-out: Log10 TGI (converted)
MCF7 = test: NCI human tumor cell panel: MCF7 (Breast Cancer); assay type: cell-based; details: MCF7, Breast Cancer; for GI50: read-out: Log10 GI50 (converted); for IC (TGI): read-out: Log10 TGI (converted)
MCF7/ADR-RES = test: NCI human tumor cell panel: MCF7/ADR-RES (Breast Cancer); assay type: cell-based; details: Breast Cancer; for GI50: read-out: Log10 GI50 (converted); for IC (TGI): read-out: Log10 TGI (converted)
SF-268 = test: NCI human tumor cell panel: SF-268 (CNS Cancer); assay type: cell-based; details: SF-268, CNS Cancer; for GI50: read-out: Log10 GI50 (converted); for IC (TGI): read-out: Log10 TGI (converted)
SK-MEL-2 = test: NCI human tumor cell panel: SK-MEL-2 (Melanoma); assay type: cell-based; details: SK-MEL-2, Melanoma; for GI50: read-out: Log10 GI50 (converted); for IC (TGI): read-out: Log10 TGI (converted)
T-47D = test: NCI human tumor cell panel: T-47D (Breast Cancer); assay type: cell-based; details: T47D, Breast Cancer; for GI50: read-out: Log10 GI50 (converted); for IC (TGI): read-out: Log10 TGI (converted)
TK-10 = test: NCI human tumor cell panel: TK-10 (Renal Cancer); assay type: cell-based; details: TK-10, Renal Cancer; for GI50: read-out: Log10 GI50 (converted); for IC (TGI): read-out: Log10 TGI (converted)
SK-MEL-5 = test: NCI human tumor cell panel: SK-MEL-5 (Melanoma); assay type: cell-based; details: SK-MEL-5, Melanoma; for GI50: read-out: Log10 GI50 (converted); for IC (TGI): read-out: Log10 TGI (converted)
SK-OV-3 = test: NCI human tumor cell panel: SK-OV-3 (Ovarian Cancer); assay type: cell-based; details: SK-OV-3, Ovarian Cancer; for GI50: read-out: Log10 GI50 (converted); for IC (TGI): read-out: Log10 TGI (converted)
OVCAR-5 = test: NCI human tumor cell panel: OVCAR-5 (Ovarian Cancer); assay type: cell-based; details: OVCAR-5, Ovarian Cancer; for GI50: read-out: Log10 GI50 (converted); for IC (TGI): read-out: Log10 TGI (converted)
UACC-257 = test: NCI human tumor cell panel: UACC-257 (Melanoma); assay type: cell-based; details: UACC-257, Melanoma; for GI50: read-out: Log10 GI50 (converted); for IC (TGI): read-out: Log10 TGI (converted)
SK-MEL-28 = test: NCI human tumor cell panel: SK-MEL-28 (Melanoma); assay type: cell-based; details: SK-MEL-28, Melanoma; for GI50: read-out: Log10 GI50 (converted); for IC (TGI): read-out: Log10 TGI (converted)
SNB-75 = test: NCI human tumor cell panel: SNB-75 (CNS Cancer); assay type: cell-based; details: SNB-75, CNS Cancer; for GI50: read-out: Log10 GI50 (converted)
M14 = test: NCI human tumor cell panel: M14 (Melanoma); assay type: cell-based; details: M14, Melanoma; for GI50: read-out: Log10 GI50 (converted); for IC (TGI): read-out: Log10 TGI (converted)
MDA-MB-435 = test: NCI human tumor cell panel: MDA-MB-435 (Breast Cancer); assay type: cell-based; details: MDA-MB-435, Breast Cancer; for GI50: read-out: Log10 GI50 (converted); for IC (TGI): read-out: Log10 TGI (converted)
K-562 = test: NCI human tumor cell panel: K-562 (Leukemia); assay type: cell-based; details: K562, K-562, Leukemia; for GI50: read-out: Log10 GI50 (converted); for IC (TGI): read-out: Log10 TGI (converted)
HL-60(TB) = test: NCI human tumor cell panel: HL-60(TB) (Leukemia); assay type: cell-based; details: Leukemia; for GI50: read-out: Log10 GI50 (converted); for IC (TGI): read-out: Log10 TGI
NCI-H460 = test: NCI human tumor cell panel: NCI-H460 (Non-Small Cell Lung Cancer); assay type: cell-based; details: NCI-H460, Non-Small Cell Lung Cancer; for GI50: read-out: Log10 GI50 (converted); for IC (TGI): read-out: Log10 TGI (converted)
RXF-393 = test: NCI human tumor cell panel: RXF-393 (Renal Cancer); assay type: cell-based; details: RXF-393, Renal Cancer; for GI50: read-out: Log10 GI50 (converted); for IC (TGI): read-out: Log10 TGI (converted)
KM12 = test: NCI human tumor cell panel: KM12 (Colon Cancer); assay type: cell-based; details: KM12, Colon Cancer; for GI50: read-out: Log10 GI50 (converted); for IC (TGI): read-out: Log10 TGI (converted)
HCC-2998 = test: NCI human tumor cell panel: HCC-2998 (Colon Cancer); assay type: cell-based; details: HCC-2998, Colon Cancer; for GI50: read-out: Log10 GI50 (converted)
SR = test: NCI human tumor cell panel: SR (Leukemia); assay type: cell-based; details: Leukemia; for GI50: read-out: Log10 GI50 (converted); for IC (TGI): read-out: Log10 TGI (converted)
NCI-H226 = test: NCI human tumor cell panel: NCI-H226 (Non-Small Cell Lung Cancer); assay type: cell-based; details: NCI-H226, Non-Small Cell Lung Cancer; for GI50: read-out: Log10 GI50 (converted); for IC (TGI): read-out: Log10 TGI (converted)
[1] = tested on: panel of sixty different human tumor cell lines; test: NCI human tumor cell panel: whole panel (mean graph summary); details: for GI50 / CC50: Homo sapiens; for GI50: read-out: Log10 GI50, cell line not given (converted); for CC50: read-out: Log10 LC50, cell line not given (converted); for Log10 TGI: cell line not given
COLO 205 = test: NCI human tumor cell panel: COLO 205 (Colon Cancer); assay type: cell-based; details: COLO 205, Colon Cancer
A498 = test: NCI human tumor cell panel: A498 (Renal Cancer); assay type: cell-based; details: A498, Renal Cancer; for GI50: read-out: Log10 GI50 (converted); for IC (TGI): read-out: Log10 TGI (converted)
MDA-MB-231/ATCC = test: NCI human tumor cell panel: MDA-MB-231/ATCC (Breast Cancer); assay type: cell-based; details: Homo sapiens, MDA-MB-231, MDA-MB-231/ATCC, Breast Cancer
[2] = read-out: Log10 GI50 (converted)
[3] = read-out: Log10 TGI (converted)

O=Cc1ccc(-c2ccc(-c3cccs3)[se]2)s1 [NSC 675346]
GI50 (NCI-H322M): 12.9 µM
IC (TGI) (NCI-H322M): > 100 µM
GI50 (IGROV1): 0.162 µM
IC (TGI) (IGROV1): 0.562 µM
GI50 (MCF7): 0.813 µM
IC (TGI) (MCF7): > 100 µM
GI50 (MCF7/ADR-RES): 13.2 µM
IC (TGI) (MCF7/ADR-RES): 60.3 µM
GI50 (SF-268): 19.1 µM
IC (TGI) (SF-268): > 100 µM
GI50 (SK-MEL-2): 24.5 µM
IC (TGI) (SK-MEL-2): > 100 µM
GI50 (T-47D): 18.2 µM
IC (TGI) (T-47D): 40.7 µM
GI50 (TK-10): 0.0631 µM
IC (TGI) (TK-10): 0.417 µM
GI50 (SK-MEL-5): 46.8 µM
IC (TGI) (SK-MEL-5): > 100 µM
GI50 (SK-OV-3): 12.6 µM
IC (TGI) (SK-OV-3): > 100 µM
GI50 (OVCAR-5): 0.0447 µM
IC (TGI) (OVCAR-5): 0.575 µM
GI50 (UACC-257): 0.0263 µM
IC (TGI) (UACC-257): 0.0832 µM
GI50 (SK-MEL-28): 44.7 µM
IC (TGI) (SK-MEL-28): > 100 µM
GI50 (SNB-75): 13.8 µM
GI50 (M14): 28.2 µM
IC (TGI) (M14): > 100 µM
GI50 (MDA-MB-435): 28.2 µM
IC (TGI) (MDA-MB-435): 87.1 µM
GI50 (K-562): 2.29 µM
IC (TGI) (K-562): > 100 µM
GI50 (HL-60(TB)): > 100 µM
IC (TGI) (HL-60(TB)): > 100 µM
GI50 (NCI-H460): 0.251 µM
IC (TGI) (NCI-H460): > 100 µM
GI50 (RXF-393): 16.2 µM
IC (TGI) (RXF-393): 42.7 µM
GI50 (KM12): 32.4 µM
IC (TGI) (KM12): > 100 µM
GI50 (HCC-2998): 0.234 µM
GI50 (SR): > 100 µM
IC (TGI) (SR): > 100 µM
GI50 (NCI-H226): 0.0174 µM
IC (TGI) (NCI-H226): 0.12 µM
GI50 [1]: 1.7 µM
CC50 [1]: > 100 µM
Log10 TGI [1]: >−4.00
GI50 (COLO 205; [2]): 4.79 µM
IC (TGI) (COLO 205; [3]): > 100 µM
GI50 (A498): 0.145 µM
IC (TGI) (A498): 0.295 µM

OCc1ccc(-c2ccc(-c3cccs3)[se]2)s1 [NSC 675344]
GI50 (NCI-H322M): 20.9 µM
IC (TGI) (NCI-H322M): > 100 µM
GI50 (IGROV1): 0.0123 µM
IC (TGI) (IGROV1): 0.0427 µM
GI50 (MCF7): 0.126 µM
IC (TGI) (MCF7): > 100 µM
GI50 (MCF7/ADR-RES): > 100 µM
IC (TGI) (MCF7/ADR-RES): > 100 µM
GI50 (SF-268): 23.4 µM
IC (TGI) (SF-268): > 100 µM
GI50 (SK-MEL-2): > 100 µM
IC (TGI) (SK-MEL-2): > 100 µM
GI50 (T-47D): 0.617 µM
IC (TGI) (T-47D): > 100 µM
GI50 (TK-10): < 0.01 µM
IC (TGI) (TK-10): 0.0501 µM
GI50 (SK-MEL-5): > 100 µM
IC (TGI) (SK-MEL-5): > 100 µM
GI50 (SK-OV-3): 16.6 µM
IC (TGI) (SK-OV-3): > 100 µM
GI50 (OVCAR-5): < 0.01 µM
IC (TGI) (OVCAR-5): 0.0871 µM
GI50 (UACC-257): < 0.01 µM
IC (TGI) (UACC-257): 0.0186 µM
GI50 (SK-MEL-28): > 100 µM
IC (TGI) (SK-MEL-28): > 100 µM
GI50 (SNB-75): 16.6 µM
IC (TGI) (SNB-75; [3]): 49 µM
GI50 (M14): > 100 µM
IC (TGI) (M14): > 100 µM
GI50 (MDA-MB-435): > 100 µM
IC (TGI) (MDA-MB-435): > 100 µM
GI50 (K-562): 0.0437 µM
IC (TGI) (K-562): > 100 µM
GI50 (HL-60(TB)): > 100 µM
IC (TGI) (HL-60(TB)): > 100 µM
GI50 (NCI-H460): < 0.01 µM
IC (TGI) (NCI-H460): > 100 µM
GI50 (RXF-393): 15.8 µM
IC (TGI) (RXF-393): 52.5 µM
GI50 (KM12): > 100 µM
IC (TGI) (KM12): > 100 µM
GI50 (HCC-2998): 0.257 µM
IC (TGI) (HCC-2998; [3]): 1.62 µM
GI50 (SR): > 100 µM
IC (TGI) (SR): > 100 µM
GI50 (NCI-H226): < 0.01 µM
IC (TGI) (NCI-H226): < 0.01 µM
GI50 [1]: 0.0871 µM
CC50 [1]: > 100 µM
Log10 TGI [1]: >−4.00
GI50 (A498): < 0.01 µM
IC (TGI) (A498): 0.0182 µM
GI50 (MDA-MB-231/ATCC; [2]): 19.1 µM
IC (TGI) (MDA-MB-231/ATCC; [3]): > 100 µM
